Measurements published in paper PMC3640428 (Journal of the American Chemical Society, 2013).

Biological target: T1, T. thermophilus GluRS (glutamyl-tRNA synthetase) (Thermus thermophilus, UniProt P27000)
T1 sequence (P27000 1-468): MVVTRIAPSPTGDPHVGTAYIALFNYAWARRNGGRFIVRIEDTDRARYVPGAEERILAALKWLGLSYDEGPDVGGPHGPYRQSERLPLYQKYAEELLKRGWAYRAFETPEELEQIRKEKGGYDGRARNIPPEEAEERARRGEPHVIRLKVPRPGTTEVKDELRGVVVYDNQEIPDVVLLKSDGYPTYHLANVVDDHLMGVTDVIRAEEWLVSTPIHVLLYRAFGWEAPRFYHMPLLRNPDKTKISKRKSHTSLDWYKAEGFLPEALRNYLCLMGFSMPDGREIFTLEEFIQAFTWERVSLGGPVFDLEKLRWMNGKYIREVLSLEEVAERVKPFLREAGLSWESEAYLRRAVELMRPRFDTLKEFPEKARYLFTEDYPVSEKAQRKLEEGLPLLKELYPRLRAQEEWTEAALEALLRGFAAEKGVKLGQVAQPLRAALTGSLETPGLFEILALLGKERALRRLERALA
Assay: intrinsic tryptophan fluorescence titration
Type: binding

Kd: 50 ± 12 µM
Compound: Nc1ncnc2c1ncn2[C@@H]1O[C@H](COP(=O)(O)OP(=O)(O)OP(=O)(O)O)[C@@H](O)[C@H]1O [ATP]
